Data from patent US7098001B2, “Polypeptides having dipeptidyl aminopeptidase activity and nucleic acids encoding same” (Novozymes, Inc., priority 1997, dated 2006).
Values belong to the molecule of their own block, whether it stands above or below them. Where a SMILES comes first, the peptide text is derived from it. The star is where a group is joined. pNA = O=[N+]([O-])c1ccc(N*)cc1

What was measured:
Assay type in all cases: biochemical
[1] = molecular target: dipeptidyl aminopeptidase I (Aspergillus oryzae, UniProt Q2UH35); assay: relative activity on mono-, di- and tri-peptide para-nitroanilide substrates; settings: enzyme diluted 100-fold, pH 7.5, ambient temperature; for Activity (mOD/min): substrate 2 mg/ml stock
Description: The relative activity of various mono-, di-, and tri-peptide para-nitroanilide substrates were assayed relative to Ala-Pro-pNA with the purified dipeptidyl aminopeptidase I diluted 100-fold in 50 mM sodium phosphate pH 7.5 buffer. Each substrate was dissolved in DMSO to a concentration of 100 mg/ml and then diluted 50 fold in 50 mM sodium phosphate pH 7.5 buffer to 2 mg/ml. The assay was performed by mixing 100 μl of the substrate solution with 100 μl of the dipeptidyl aminopeptidase I solution and monitoring the change in absorbance at 405 nm and ambient temperature.

[2] = substrate: C[C@H](N)C(=O)N[C@@H](C)C(=O)Nc1ccc([N+](=O)[O-])cc1; assay: kinetic parameters (Lineweaver-Burke plot) for dipeptidyl aminopeptidase I substrates; settings: other: 50 mM sodium phosphate pH 7.5
Description: (§1) The kinetic parameters for various dipeptidyl aminopeptidase I substrates was determined using the following protocol. The substrates included Ala-Pro-pNA, Asp-Pro-pNA, and Ala-Ala-pNA. Purified dipeptidyl aminopeptidase I with an A280 of 1.521 was diluted 25-fold for Ala-Pro-pNA, 20-fold for Asp-Pro-pNA, and 10-fold for Ala-Ala-pNA in water. Each substrate was dissolved in DMSO to a concentration of 100 mg/ml and then diluted 50 fold in 50 mM sodium phosphate pH 7.5 buffer to 2 mg/ml. In a 96 well microtiter plate, 10 μl of purified dipeptidyl aminopeptidase I was incubated with each substrate as follows except the 200 μl substrate assay was not performed with the Asp-Pro-pNA substrate, and the absorbance at 405 nm was measured for 3 minutes: • 1. 200 μl of 2 mg/ml substrate+0 μl of 50 mM sodium phosphate buffer pH 7.5 • 2. 100 μl of 2 mg/ml substrate+100 μl of 50 mM sodium phosphate buffer pH 7.5 • 3. 50 μl of 2 mg/ml substrate +150 μl of 50 mM sodium phosphate buffer pH 7.5 • 4. 25 μl of 2 mg/ml substrate+175 μl of 50 mM sodium phosphate buffer pH 7.5 • 5. 10 μl of 2 mg/ml substrate+190 μl of 50 mM sodium phosphate buffer pH 7.5 • 6. 5 μl of 2 mg/ml substrate+195 μl of 50 mM sodium phosphate buffer pH 7.5

[3] = substrate: C[C@H](N)C(=O)N1CCC[C@H]1C(=O)Nc1ccc([N+](=O)[O-])cc1; assay: as above; settings: other: 50 mM sodium phosphate pH 7.5
Description: as §1

[4] = substrate: N[C@@H](CC(=O)O)C(=O)N1CCC[C@H]1C(=O)Nc1ccc([N+](=O)[O-])cc1; assay: as above; settings: other: 50 mM sodium phosphate pH 7.5
Description: as §1

Molecule: C[C@H](N)C(=O)Nc1ccc([N+](=O)[O-])cc1 [Ala-pNA]
Percent Activity Retative to Ala-Pro-pNA [1]: 0%
Activity (mOD/min) [1]: 0 mOD/min

Molecule: C[C@H](N)C(=O)N1CCC[C@H]1C(=O)Nc1ccc([N+](=O)[O-])cc1 [Ala-Pro-pNA] (H-Ala-Pro-pNA)
Percent Activity Retative to Ala-Pro-pNA [1]: 100%
Activity (mOD/min) [1]: 244 mOD/min

Molecule: C[C@H](N)C(=O)N[C@@H](C)C(=O)N1CCC[C@H]1C(=O)Nc1ccc([N+](=O)[O-])cc1 [Ala-Ala-Pro-pNA] (H-Ala-Ala-Pro-pNA)
Percent Activity Retative to Ala-Pro-pNA [1]: 4.3%
Activity (mOD/min) [1]: 10.6 mOD/min

Molecule: CC(C)[C@H](N)C(=O)N[C@@H](C)C(=O)Nc1ccc([N+](=O)[O-])cc1 [Val-Ala-pNA] (H-Val-Ala-pNA)
Percent Activity Retative to Ala-Pro-pNA [1]: 20.3%
Activity (mOD/min) [1]: 49.5 mOD/min

Molecule: C[C@H](N)C(=O)N[C@@H](C)C(=O)Nc1ccc([N+](=O)[O-])cc1 [Ala-Ala-pNA] (H-Ala-Ala-pNA)
Percent Activity Retative to Ala-Pro-pNA [1]: 12.4%
Activity (mOD/min) [1]: 30.2 mOD/min

B1: dipeptidyl aminopeptidase I (Aspergillus oryzae RIB40) (protein)
chain: LDVPRKPHAPTGEGSKRLTFNETVVKQAITPTSRSVQWLSGAEDGSYVYAAEDGSLTIENIVTNESRTLIPADKIPTGKEAFNYWIHPDLSSVLWASNHTKQYRHSFFADYYVQDVESLKSVPLMPDQEGDIQYAQWSPVGNTIAFVRENDLYVWDNGTVTRITDDGGPDMFHGVPDWIYEEEILGDRYALWFSPDGEYLAYLSFNETGVPTYTVQYYMDNQEIAPAYPWELKIRYPKVSQTNPTVTLSLLNIASKEVKQAPIDAFESTDLIIGEVAWLTDTHTTVAAKAFNRVQDQQKVVAVDTASNKATVISDRDGTDGWLDNLLSMKYIGPIKPSDKDAYYIDISDHSGWAHLYLFPVSGGEPIPLTKGDWEVTSILSIDQERQLVYYLSTQHHSTERHLYSVSYSTFAVTPLVDDTVAAYWSASFSANSGYYILTYGGPDVPYQELYTTNSTKPLRTITDNAKVLEQIKDYALPNITYFELPLPSGETLNVMQRLPPGFSPDKKYPILFTPYGGPGAQEVTKRWQALNFKAYVASDSELEYVTWTVDNRGTGFKGRKFRSAVTRQLGLLEAEDQIYAAQQAANIPWIDADHIGIWGWSFGGYLTSKVLEKDSGAFTLGVITAPVSDWRFYDSMYTERYMKTLSTNEEGYETSAVRKTDGFKNVEGGFLIQHGTGDDNVHFQNSAALVDLLMGDGVSPEKLHSQWFTDSDHGISYHGGGVFLYKQLARKLYQEKNRQTQVLMHQWTKKDLEE
Km [2]: 1080 µM
kcat [2]: 1.775 s⁻¹
Km [3]: 140 µM
kcat [3]: 9.605 s⁻¹
Km [4]: 632 µM
kcat [4]: 4.072 s⁻¹

Continued, values first:

Percent Activity Retative to Ala-Pro-pNA [1]: 0%
Activity (mOD/min) [1]: <2 mOD/min
Molecule: NCC(=O)N[C@@H](CCC(=O)O)C(=O)Nc1ccc([N+](=O)[O-])cc1 [Gly-Glu-pNA] (H-Gly-Glu-pNA)

Percent Activity Retative to Ala-Pro-pNA [1]: 51.25%
Activity (mOD/min) [1]: 125 mOD/min
Molecule: NCC(=O)N1CCCC1C(=O)Nc1ccc([N+](=O)[O-])cc1 (stereo not drawn) [Gly-Pro-pNA]

Percent Activity Retative to Ala-Pro-pNA [1]: 0%
Activity (mOD/min) [1]: 0 mOD/min
Molecule: CC(C)C[C@H](N)C(=O)Nc1ccc([N+](=O)[O-])cc1 [Leu-pNA]

Percent Activity Retative to Ala-Pro-pNA [1]: 29%
Activity (mOD/min) [1]: 70.95 mOD/min
Molecule: N[C@@H](CC(=O)O)C(=O)N1CCC[C@H]1C(=O)Nc1ccc([N+](=O)[O-])cc1 [Asp-Pro-pNA] (H-Asp-Pro-pNA)

Percent Activity Retative to Ala-Pro-pNA [1]: 42.17%
Activity (mOD/min) [1]: 103 mOD/min
Molecule: N=C(N)NCCC[C@H](N)C(=O)N1CCC[C@H]1C(=O)Nc1ccc([N+](=O)[O-])cc1 [Arg-Pro-pNA] (H-Arg-Pro-pNA)

Percent Activity Retative to Ala-Pro-pNA [1]: 0%
Activity (mOD/min) [1]: 0 mOD/min
Molecule: NCC(=O)N[C@@H](CCCN=C(N)N)C(=O)Nc1ccc([N+](=O)[O-])cc1 [Gly-Arg-pNA] (H-Gly-Arg-pNA)
